Results published in the NIST ThermoML archive (doi:10.1021/je060271a).

Details: 343.15 K, Liquid, Vibrating tube method

CCCCCCCC(=O)OCC(COC(=O)CCCCCCC)(COC(=O)CCCCCCC)COC(=O)CCCCCCC [pentaerythritol tetraoctanoate]
Details	mass density [kg/m3]
665.9 kPa	926.5
687.8 kPa	926.6
706.6 kPa	926.4
730 kPa	926.5
755.6 kPa	926.6
778.5 kPa	926.5
802.8 kPa	926.6
832.2 kPa	926.4
862.6 kPa	926.6
881.1 kPa	926.6
902.3 kPa	926.7
920.9 kPa	926.6
940.4 kPa	926.6
964.7 kPa	926.7
985.7 kPa	926.6
1011.4 kPa	926.8
1034.9 kPa	926.7
1063.7 kPa	926.8
1088.9 kPa	926.8
1119.9 kPa	926.8
1147.2 kPa	926.8
1182.1 kPa	926.7
1218.2 kPa	926.8
1249.3 kPa	926.9
1282.5 kPa	926.8
1323.6 kPa	927.1
1359.7 kPa	927
1406.5 kPa	926.9
1447.6 kPa	927
1490.5 kPa	927
1543.8 kPa	927.1
1590.8 kPa	927.1
1650.5 kPa	927.1
1702.4 kPa	927.2
1763.5 kPa	927.2
1794.1 kPa	927.3
1881.2 kPa	927.4
1905.6 kPa	927.4
1913.3 kPa	927.3
1919.7 kPa	927.4
1926.3 kPa	927.3
1934.1 kPa	927.4
1941 kPa	927.5
1952.7 kPa	927.5
1970.2 kPa	927.3
2032.8 kPa	927.4
2121.2 kPa	927.7
2203.7 kPa	927.5
2331.4 kPa	927.7
2366.8 kPa	927.7
2379.6 kPa	927.9
2393.5 kPa	927.8
2403.9 kPa	927.9
2415.5 kPa	927.8
2424.6 kPa	927.8
2434.6 kPa	927.8
2446.8 kPa	927.8
2457.7 kPa	927.7
2468.6 kPa	927.9
2480.2 kPa	927.8
2493.9 kPa	927.9
2505.4 kPa	927.9
2519.4 kPa	927.9
2531.1 kPa	927.9
2543 kPa	927.9
2555.2 kPa	927.8
2569.2 kPa	927.9
2581.3 kPa	928
2593.5 kPa	927.9
2608.2 kPa	928
2620.9 kPa	927.9
2633.4 kPa	928.1
2646.4 kPa	927.9
2659 kPa	928
2674.6 kPa	928
2687.8 kPa	928
2700.8 kPa	928
2713.8 kPa	927.9
2729.6 kPa	928.1
2743.3 kPa	928
2756.7 kPa	927.9
2773 kPa	927.9
2786.3 kPa	928.1
2800.4 kPa	928
2814.8 kPa	928.1
2830 kPa	928.1
2846.9 kPa	928.2
2861.3 kPa	928.1
2875.3 kPa	928.1
2892.3 kPa	928.1
2907 kPa	928.1
2921.6 kPa	928.2
2936.8 kPa	928.1
2955 kPa	928.2
2969.8 kPa	928.1
2988.2 kPa	928.2
3003.6 kPa	928.1
3019.4 kPa	928.3
3035.5 kPa	928.4
3053.7 kPa	928.2
3070.2 kPa	928.3
3085.9 kPa	928.2
3102.6 kPa	928.4
3121.8 kPa	928.3
3138.3 kPa	928.4
3154.9 kPa	928.4
3175.2 kPa	928.3
3191.8 kPa	928.3
3209 kPa	928.3
3229.6 kPa	928.4
3247 kPa	928.4
3264.6 kPa	928.4
3285.8 kPa	928.4
3303.6 kPa	928.5
3321.5 kPa	928.5
3343 kPa	928.5
3361.5 kPa	928.6
3379.9 kPa	928.5
3398.8 kPa	928.5
3421.3 kPa	928.5
3440 kPa	928.4
3463.2 kPa	928.4
3482.8 kPa	928.5
3502.4 kPa	928.4
3522.3 kPa	928.7
3542.4 kPa	928.6
3566.7 kPa	928.7
3583.3 kPa	928.6
3608.1 kPa	928.7
3632.7 kPa	928.7
3653.7 kPa	928.6
3674.8 kPa	928.8
3695.9 kPa	928.7
3721.9 kPa	928.7
3743.4 kPa	928.8
3765.8 kPa	928.7
3792.8 kPa	928.8
3815.3 kPa	928.8
3838 kPa	928.8
3861 kPa	928.9
3888.6 kPa	929
3911.4 kPa	929
3935 kPa	928.8
3959.2 kPa	928.9
3987.5 kPa	929
4012.2 kPa	929
4037.5 kPa	928.9
4064.5 kPa	929
